Experiment [1] addresses mMC4R (Mus musculus, UniProt P56450). It is filed as cell-based.
The target of experiment [2] is mMC5R (Mus musculus, UniProt P41149). The experiment in a line: cAMP based β-galactosidase reporter assay, agonist activity at mMC5R. Format: cell-based. The settings on record: read-out: mMC5R Agonist EC50; HEK-293 cells, CRE/β-galactosidase reporter; mean ± SEM. A general note: In a reporter assay the amount or activity of a reporter protein is the signal.
The target in experiment [3] is T1, mMC3R (Mus musculus, UniProt P33033). It is filed as cell-based.
The target of experiment [4] is T1, mMC3R. The experiment in a line: cAMP based β-galactosidase reporter assay. The settings on record: Figure 1. Format: cell-based.
Experiment [5] deals with mMC4R F176K. The settings on record: mutation F176K; cited from earlier work.
The subject of experiment [6] is mMC4R mutations (E92K, F253S). The following applies: cited from earlier work.
The target of experiment [7] is hMC3R. The following applies: cited from earlier work.
For experiment [8], the system named is hMC4R. The settings on record: cited from earlier work.
For experiment [9], the system named is MC4R. The settings on record: cited from earlier work.
Setting [10] is: Schild analysis, agonist MTII, mean ± SEM.

“Also recorded” adds a separate entry of the source. Where a SMILES comes first, the peptide text is derived from it. [ ]: non-standard residue; d: D form.

A word on the EC50: it is the concentration needed to bring the measured effect to its halfway point. Usually Ki stands for a measure of affinity in units of concentration, obtained from inhibition or displacement. Read a low Ki as a stronger hold on the target. The term IC50 denotes the concentration needed to halve the response being measured.

T1 sequence (P33033 whole entry): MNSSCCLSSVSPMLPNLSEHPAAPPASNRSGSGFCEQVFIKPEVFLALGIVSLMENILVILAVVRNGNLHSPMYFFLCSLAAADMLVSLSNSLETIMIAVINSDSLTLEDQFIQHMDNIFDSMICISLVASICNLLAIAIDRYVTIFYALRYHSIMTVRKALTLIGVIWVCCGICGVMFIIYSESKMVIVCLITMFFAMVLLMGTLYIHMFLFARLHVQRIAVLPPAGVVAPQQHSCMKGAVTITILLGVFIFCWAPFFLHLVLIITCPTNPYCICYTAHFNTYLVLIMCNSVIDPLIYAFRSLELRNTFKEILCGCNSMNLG
mMC4R, sequence (P56450 whole entry): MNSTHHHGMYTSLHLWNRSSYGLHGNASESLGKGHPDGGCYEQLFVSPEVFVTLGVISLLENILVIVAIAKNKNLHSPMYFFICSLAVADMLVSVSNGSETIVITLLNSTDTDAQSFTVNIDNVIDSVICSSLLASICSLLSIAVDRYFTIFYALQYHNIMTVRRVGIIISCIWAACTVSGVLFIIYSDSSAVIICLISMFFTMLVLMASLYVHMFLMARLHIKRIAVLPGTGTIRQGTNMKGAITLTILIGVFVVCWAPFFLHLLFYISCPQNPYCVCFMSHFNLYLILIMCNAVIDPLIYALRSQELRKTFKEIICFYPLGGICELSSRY
mMC5R, sequence (P41149 whole entry): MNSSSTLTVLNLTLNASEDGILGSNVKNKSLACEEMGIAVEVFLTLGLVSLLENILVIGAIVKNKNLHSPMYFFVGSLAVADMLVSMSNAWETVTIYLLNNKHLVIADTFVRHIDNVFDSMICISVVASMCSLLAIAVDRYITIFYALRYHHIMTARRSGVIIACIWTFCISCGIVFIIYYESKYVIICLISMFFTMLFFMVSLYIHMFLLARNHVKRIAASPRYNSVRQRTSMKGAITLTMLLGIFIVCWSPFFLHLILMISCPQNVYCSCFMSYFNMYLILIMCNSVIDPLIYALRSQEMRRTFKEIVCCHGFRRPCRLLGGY

Turning to `C[C@@H]1NC(=O)[C@H](Cc2ccccc2)NC(=O)[C@H](C)NC(=O)[C@H](CC(N)=O)NC(=O)[C@H](Cc2ccccc2)NC(=O)[C@H](Cc2ccccc2)NC(=O)[C@H](CCCNC(=N)N)NC(=O)[C@H](C)NC(=O)[C@H](Cc2ccc(O)cc2)NC(=O)[C@@H]2CCCN2C(=O)[C@H]2CCCN2C(=O)[C@H](Cc2ccc(O)cc2)NC1=O` [Peptide 4], in experiment [1], the “no activity at the mMC4R up to (concentration)” value was more than 100 µM. Besides, in [1] (setting [10]), the “mMC4R antagonist pA2” value is listed as >100,000. Also, the EC50 in experiment [2] is more than 100000 nM. Moreover, in experiment [3], the “no activity at the mMC3R up to (concentration)” value was more than 100 µM. Besides, in experiment [3] (setting [10]), the “mMC3R antagonist pA2” value is given as >100,000.
`C[C@@H]1NC(=O)[C@H](CC(N)=O)NC(=O)[C@H](Cc2ccccc2)NC(=O)[C@H](Cc2ccccc2)NC(=O)[C@H](CCCNC(=N)N)NC(=O)[C@H]([C@@H](C)O)NC(=O)[C@H](Cc2ccc(O)cc2)NC(=O)[C@@H]2CCCN2C(=O)[C@H]2CCCN2C(=O)[C@H](Cc2ccc(O)cc2)NC(=O)[C@H]([C@@H](C)O)NC(=O)[C@H](Cc2ccccc2)NC1=O` [Peptide 5] (cyclo(YTRFFNAFTY[dP]P)) returned a Ki in [1] of 160 nM. Besides, the EC50 in [2] is more than 100000 nM.
On to `C[C@@H]1NC(=O)[C@H](CC(N)=O)NC(=O)[C@H](Cc2ccccc2)NC(=O)[C@H](Cc2ccccc2)NC(=O)[C@H](CCCNC(=N)N)NC(=O)[C@@H]2CCCN2C(=O)[C@H]2CCCN2C(=O)[C@H](Cc2ccccc2)NC1=O` [Peptide 6, c[Pro-Arg-Phe-Phe-Asn-Ala-Phe-DPro]], for which, in [4], the “partial agonist activity at the mMC3R” value is reported as “lack of agonist activity; also recorded: without any partial agonist activity”.
For the compound `C[C@@H]1NC(=O)[C@H](CN)NC(=O)[C@H](Cc2ccccc2)NC(=O)[C@H](Cc2ccccc2)NC(=O)[C@H](CCCNC(=N)N)NC(=O)[C@@H]2CCCN2C(=O)[C@H]2CCCN2C(=O)[C@H](Cc2ccccc2)NC1=O` [Peptide 22, c[Pro-Arg-Phe-Phe-Dap-Ala-Phe-DPro]], in experiment [4], the “partial agonist activity at the mMC3R” value is on record as “did not result in partial agonist activity”.
As to “AGRP(83-132): C-terminal AGRP(83-132) peptide (SSRRCVRLHESCLGQQVPCCDPCATCYCRFFNAFCYCRKLGTAMNPCSRT; UniProt O00253 83-132, looked up, fragment)”, the “loss of antagonist potency at mMC4R F176K” value in [5] is recorded as “complete loss of activity”. In [6], the “binding to mMC4R mutations E92K, F253S” value is “unable to bind”.
As for “Ac-c[Cys-Arg-Phe-Phe-Asn-Ala-Phe-Cys]-NH2 [AGRP(110-117)]”, in [7], the “binding affinity at the hMC3R” value is “no detectable binding”. The “fold lower hMC4R binding affinity than AGRP(83-132)” value in experiment [8] (compared to C-terminal AGRP(83-132)) is “approximately 36 fold”. Besides, the IC50 in [8] (read-out: IC50 binding affinity at the hMC4R) is 127 nM.
For HS024, the “selectivity for the MC4R compared to the MC3R” value in experiment [9] is given as “approximately 20 fold”.

The values above are taken from paper PMC5672791 (Journal of medicinal chemistry, 2015).
